Results: PMC6290777, “Inhalation of the prodrug PI3K inhibitor CL27c improves lung function in asthma and fibrosis” (Nature Communications, 2018)

Experiments:
[1] = system: Akt phosphorylation (Ser473) in lung, heart, liver; assay: Insulin stimulation analysis in liver, heart, and lung (pAkt); type: in vivo, mice; conditions: inhaled CL27c 2 mg/ml 30 min; insulin 1 UI/kg i.p.
Procedure: Animals were fasted overnight and, the day after, they were treated for 30 min with aerosolized CL27c (2 mg/ml in 0.5 % tylaxopol/saline solution). After 1 h from the CL27c treatment mice were administrated with insulin (1.0 UI kg^−1 diluted in PBS solution, Actrapid, Novo Nordisk, i.p. injection). Ten min after injection, the animals where sacrificed and tissues removed, frozen in liquid nitrogen, and homogenized in lysis buffer (50 mM Tris-HCl, pH = 8, 150 mM NaCl, 1% Triton X-100) supplemented with 50 mM NaF, 2 mM sodium orthovanadate, 1 mM sodium pyro-phosphate, and protease inhibitor cocktail (Roche).
Lung, liver, and heart samples were collected for western blot detection of akt phosphorilation levels. Protein samples were resolved by 10% SDS-PAGE and transferred on to PVDF (Immobilon™-P) membranes. The membranes were blocked with 5% BSA in 1x TBS with 0.3% Tween 20 for 30 min at […]. Then, the membranes were incubated overnight at 4 °C with primary antibodies (phosphorylated Akt serine 473, 1:1000, Cell Signaling Technology, Cat. Number 4060) and 1 h with HRP-conjugated secondary antibody (1:10000). […] For quantification, specific phosphorylation was calculated as the ratio of signals for phosphorylated Akt to the signal of total Akt detected. […]

[2] = system: glucocorticoid-resistant neutrophilic asthma; assay: Glucocorticoid-resistant asthma model; type: in vivo, BALB/c mice; conditions: CL27c 2 mg/ml aerosol
Procedure: BALF was performed to obtain leukocytes from alveolar space. The trachea was exposed and a 1.7-mm-outside-diameter polyethylene catheter was inserted. BAL was performed by washing the lungs three-times with three different 500 µl aliquots of PBS. BALF samples were centrifuged at 600 × g for 10 min at 4 °C on a histology glass slide and stained with Diff Quick (MICROPTIC, #DQ-ST). The number of leukocytes and differential counts of different population were obtained evaluating the percentage leukocyte populations over the total cell number.
Mice were anesthetized with a subcutaneous injection of ketamine and xylazine (130 mg/Kg ketamine and 8.5 mg/Kg xylazine) to maintain spontaneous breathing under anesthesia. Mice were tracheostomized, placed in a body plethysmograph and connected to a computer-controlled ventilator (Forced Pulmonary Maneuver System®, Buxco Research Systems©, Wilmington, North Carolina USA). First, an average breathing frequency of 160 breaths/min was imposed to the anesthetized animal by a pressure-controlled ventilation until a regular breathing pattern and complete expiration at each breathing cycle was obtained. Under mechanical respiration, respiratory flow and airway pressure were measured to compute dynamic compliance (Cdyn) and lung resistance (RL). To measure the TLC, pressure–volume maneuvers were performed, where lungs were inflated to a standard pressure of +30 cm H2O and then let slowly exhale until a negative pressure of −30 cm H2O was reached. To measure the FEV Fast-Flow Volume maneuvers was performed. In this maneuver, lungs were first inflated to +30 cm H2O (TLC) and, immediately, a negative pressure (−30 cm H2O) was applied in order to enforce expiration. To evaluate AHR, the same mice used in previous maneuvers (basal condition) received Metacholine, 1 mg/Kg (Acetyl-β-methylcholine chloride, A-2251, Sigma-Aldrich St.Louis, MO,USA) i.v., and 20 sec after, a new set of maneuvers were conducted to assess RL changes. Suboptimal maneuvers were rejected and for each test in every single mouse at least three acceptable maneuvers were conducted to obtain a reliable mean for all numeric parameters.
IL-5, IL-13, eotaxin, TGF-β, KC, IL-17A, and MCP-1 levels in the BALF and anti-OVA IgE levels in serum were measured by ELISA technique using commercial DuoSet kits R&D Systems according to the instructions of the manufacturer. Results were expressed in levels of cytokines per ml of […] (pg/ml) or arbitrary units (A.U.).
On day 1 BALB/c mice received systemic immunization by subcutaneous injection of 20 µg of chicken egg ovalbumin (OVA grade V, >98% pure; Sigma, St Louis, MO) in saline, emulsified in 75 µL CFA (Complete Freund’s Adjuvant; Sigma-Aldrich) (Figure 5)[52]. On days 25–28 mice were exposed to aerosolised ovalbumin (1% in saline) for 20 min per day. Mice were exposed during 30 min to aerosolized CL27c (2 mg/ml dissolved in 0.5 % tylaxopol/saline solution) or vehicle (0.5% tyloxapol/saline solution), or to systemic treatment with dexamethasone (5 mg/kg i.p. injection). Untreated control groups included mice challenged with PBS alone. On day 29, mice were sacrificed, and samples were collected for further analysis.
The left lung was removed and fixed in 4% neutral phosphate-buffered formalin (pH 7.4)[10]. The tissues were dehydrated gradually in ethanol, embedded in paraffin, cut into 4 µm sections, stained with H&E, Gomori’s trichrome and periodic acid schiff (PAS), and examined under light microscopy by a pathologist in a double blinded manner. Images of lung sections were captured with a digital camera (Optronics DEI-470) connected to a microscope (Olympus IX70) with a magnification of ×40 or ×100. Inflammation was scored according to modification of existing protocols[53] and to the histopathology criteria reported in Supplementary Table 4.

[3] = Glycemia and insulin challenge after inhaled CL27c; type: in vivo, mice; conditions: N.S. vs vehicle
Procedure: To define whether this prodrug was suitable for inhaled administration, CL27c was studied to evaluate selected ADME (absorption, distribution, metabolism, and excretion) and pharmacokinetic properties. First, stability of CL27c and CL27e was analyzed in mouse plasma (Supplementary Table 1) and in mouse, rat, and human liver microsomes in the presence of nicotinamide adenine dinucleotide phosphate (NADPH; Supplementary Table 2). Next, clearance of CL27c was analyzed in C57BL/6J mice after either intra-venous or oral administration. […] Clearance of CL27c and CL27e after oral administration could not be determined due to their low bioavailability (Supplementary Table 3). Next, pharmacokinetics after inhalation was studied in C57BL/6J mice after delivering an aerosolized micro-suspension of CL27c. As shown in Table 1 and Supplementary Fig. 1b, CL27c dose-dependently reached the lungs and its metabolite CL27e was detectable after inhalation of the highest dose. […] Therefore, the inhaled prodrug promotes local effects but prevents systemic absorption of pharmacologically relevant amounts of the active compound.
Animals were fasted overnight and, the day after, they were treated for 30 min with aerosolized CL27c (2 mg/ml in 0.5 % tylaxopol/saline solution). […]

COC(=O)c1cccc(Cn2cc(-c3cccc4c(=O)cc(N5CCOCC5)[nH]c34)nn2)c1 [CL27c]
insulin-evoked Akt phosphorylation (Ser473) in lungs [1]: did not show elevation of protein kinase B (Akt) phosphorylation
insulin-evoked Akt phosphorylation in heart or liver [1]: insulin was able to normally increase Akt phosphorylation
abundance of cytokines (MCP-1, IL-17A, KC, Eotaxin, IFN-γ) [2]: could not block systemic production of these mediators
airway hyperreactivity and lung resistance ([2]; dexamethasone 5 mg/kg i.p.): without modifying either airway hyperreactivity or lung resistance
histopathology: overall score of lung damage / tissue inflammation ([2]; dexamethasone 5 mg/kg i.p.): significantly reduce the overall score of lung damage
lung compliance (Cdyn) ([2]; dexamethasone 5 mg/kg i.p.): restored normal lung compliance
number of inflammatory cells in BALF ([2]; dexamethasone 5 mg/kg i.p.): reduce the number of inflammatory cells in BALF
drop in glycemia 10 min after an insulin challenge [3]: 17.45 ± 3.00 % drop
glycemia [3]: 213.0 ± 5.6 mg/dL
